Source: ChEMBL document CHEMBL1201862, “PubChem BioAssay data set” (2004)
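96-well plates; 48 h exposure; 5 concentrations. Endpoints by linear interpolation between flanking doses. Not reached: highest tested concentration assigned. Abbreviation: GI50, concentration required for 50% inhibition of growth.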 Activity calls are given as the source filed them. No stated cut-off is given here; in the data, active = GI50 up to about 1.1 µM and inactive = higher.

What was measured:
Test in all cases: inhibition of tumour cell growth, NCI panel, 48 h
A549 = test system: A549
ACHN = test system: ACHN
KM12 = test system: KM12
NCI-H460 = test system: NCI-H460
OVCAR-8 = test system: OVCAR-8
RPMI-8226 = test system: RPMI-8226
SF-268 = test system: SF-268
SF-539 = test system: SF-539
SK-MEL-28 = test system: SK-MEL-28
SN12C = test system: SN12C
SNB-19 = test system: SNB-19
SW-620 = test system: SW-620
TK-10 = test system: TK-10
U-251 = test system: U-251
UO-31 = test system: UO-31
CCRF-CEM = test system: CCRF-CEM

Measured: GI50

COCCOCOC(C)(C)[C@H](CCO)O[Si](c1ccccc1)(c1ccccc1)C(C)(C)C
inactive: A549 6.32 µM | ACHN 5.68 µM | KM12 11.5 µM | NCI-H460 5.15 µM | OVCAR-8 10.4 µM | RPMI-8226 6.17 µM | SF-268 7.13 µM | SF-539 14.1 µM | SK-MEL-28 14.9 µM | SN12C 3.34 µM | SNB-19 13.2 µM | SW-620 11.2 µM | TK-10 10.9 µM | U-251 11 µM | UO-31 13 µM

O=C(NN1C(=O)CS(=O)(=O)C1c1ccc(C(F)(F)F)cc1)c1ccncc1 (stereo not drawn)
inactive: A549 > 100 µM | ACHN > 100 µM | CCRF-CEM > 100 µM | KM12 > 100 µM | NCI-H460 > 100 µM | RPMI-8226 > 100 µM | SF-268 > 100 µM | SK-MEL-28 > 100 µM | SN12C > 100 µM | SNB-19 > 100 µM | SW-620 > 100 µM | TK-10 > 100 µM | U-251 > 100 µM

CCCCOC(=O)CNC(=O)OCCCCC#CC#CCCCCOC(=O)NCC(=O)OCCCC
inactive: A549 > 100 µM | ACHN > 100 µM | CCRF-CEM > 100 µM | KM12 > 100 µM | NCI-H460 > 100 µM | OVCAR-8 > 100 µM | RPMI-8226 > 100 µM | SF-268 > 100 µM | SF-539 > 100 µM | SN12C > 100 µM | SNB-19 > 100 µM | SW-620 > 100 µM | TK-10 > 100 µM | U-251 > 100 µM | UO-31 > 100 µM

C/C=C/C1(C)/C(=N\O)C(C)(CCC)C(=O)N1O (stereo not drawn)
inactive: A549 > 100 µM | ACHN > 100 µM | CCRF-CEM > 100 µM | KM12 > 100 µM | NCI-H460 > 100 µM | OVCAR-8 > 100 µM | RPMI-8226 > 100 µM | SF-539 > 100 µM | SK-MEL-28 > 100 µM | SN12C > 100 µM | SNB-19 > 100 µM | SW-620 > 100 µM | TK-10 > 100 µM | U-251 > 100 µM | UO-31 > 100 µM

Nc1nc(Cl)cc(NCCCCCCNc2cc(Cl)nc(N)n2)n1
inactive: A549 60.7 µM | ACHN 2.88 µM | CCRF-CEM 59.6 µM | KM12 > 100 µM | NCI-H460 > 100 µM | OVCAR-8 > 100 µM | RPMI-8226 45.3 µM | SF-539 > 100 µM | SN12C > 100 µM | SNB-19 > 100 µM | SW-620 > 100 µM | TK-10 > 100 µM | U-251 > 100 µM | UO-31 > 100 µM

COc1ccccc1/C=C1\CCC(CCN2CCOCC2)C1=O (stereo not drawn)
inactive: A549 > 100 µM | ACHN 75.2 µM | CCRF-CEM 38.7 µM | KM12 > 100 µM | NCI-H460 90.8 µM | OVCAR-8 > 100 µM | RPMI-8226 34 µM | SF-268 > 100 µM | SF-539 > 100 µM | SK-MEL-28 > 100 µM | SN12C > 100 µM | SNB-19 > 100 µM | SW-620 > 100 µM | TK-10 93.1 µM | UO-31 90.4 µM

CCOP(=O)(OCC)OC1C=CC2CCC1C2 (stereo not drawn)
inactive: A549 > 100 µM | ACHN > 100 µM | CCRF-CEM > 100 µM | KM12 > 100 µM | NCI-H460 > 100 µM | OVCAR-8 > 100 µM | RPMI-8226 28.1 µM | SF-268 > 100 µM | SF-539 > 100 µM | SK-MEL-28 > 100 µM | SN12C > 100 µM | SNB-19 > 100 µM | TK-10 > 100 µM | U-251 > 100 µM | UO-31 > 100 µM

NC(=O)N/N=C1/CCCC/C1=C\c1ccccc1
inactive: A549 > 100 µM | ACHN > 100 µM | CCRF-CEM > 100 µM | KM12 > 100 µM | NCI-H460 > 100 µM | OVCAR-8 > 100 µM | RPMI-8226 > 100 µM | SF-268 > 100 µM | SF-539 > 100 µM | SK-MEL-28 > 100 µM | SN12C > 100 µM | SW-620 > 100 µM | TK-10 > 100 µM | U-251 > 100 µM | UO-31 80.9 µM

O=C(Nc1ccc(Cl)c(Cl)c1)C(=O)C(C(=O)c1ccccc1-c1ccccc1)C1OC(=O)c2ccccc21 (stereo not drawn)
inactive: A549 21.3 µM | ACHN 31.3 µM | CCRF-CEM 12.1 µM | KM12 14.7 µM | NCI-H460 19.9 µM | OVCAR-8 17.4 µM | RPMI-8226 8.24 µM | SF-268 15.8 µM | SF-539 10.1 µM | SK-MEL-28 > 100 µM | SW-620 19 µM | TK-10 23.6 µM | U-251 9.1 µM | UO-31 15.6 µM

O=C1[C@@H]2C(c3ccc(Cl)cc3Cl)=NO[C@@H]2C(=O)N1c1ccc(Cc2ccc(N3C(=O)[C@H]4C(c5ccc(Cl)cc5Cl)=NO[C@H]4C3=O)cc2)cc1
inactive: A549 > 100 µM | CCRF-CEM 12.9 µM | KM12 > 100 µM | OVCAR-8 40.7 µM | RPMI-8226 21.2 µM | SF-268 > 100 µM | SF-539 52.7 µM | SK-MEL-28 67.1 µM | SN12C 54 µM | SW-620 71.8 µM | TK-10 51.8 µM | UO-31 > 100 µM

Cc1cc(NS(=O)(=O)c2ccc(NC(=O)c3cccc4c(Nc5ccc(S(=O)(=O)Nc6cc(C)on6)cc5)c5ccccc5nc34)cc2)no1
inactive: A549 > 100 µM | ACHN > 100 µM | CCRF-CEM 35.6 µM | KM12 > 100 µM | NCI-H460 > 100 µM | OVCAR-8 70.3 µM | RPMI-8226 64.4 µM | SF-268 34.7 µM | SF-539 27.4 µM | SK-MEL-28 40.3 µM | SN12C 39.4 µM | SNB-19 32.7 µM | SW-620 > 100 µM | U-251 30.5 µM | UO-31 38.7 µM

Cc1cc(C)nc(NS(=O)(=O)c2ccc(Nc3c4ccccc4nc4c(C(=O)Nc5ccc(S(=O)(=O)N=C(N)N)cc5)ccc(Cl)c34)cc2)n1
inactive: A549 > 100 µM | ACHN 43.5 µM | KM12 42.7 µM | NCI-H460 53.1 µM | OVCAR-8 17.5 µM | RPMI-8226 28.2 µM | SF-268 27.9 µM | SF-539 19.3 µM | SK-MEL-28 > 10 µM | SN12C 29.8 µM | SNB-19 20.4 µM | TK-10 34.6 µM | U-251 18.2 µM | UO-31 25.4 µM

Cc1cc2c(c3c1c1ccccc1n3C)C(=O)c1ccccc1C2=O
inactive: A549 > 100 µM | ACHN > 100 µM | CCRF-CEM > 100 µM | KM12 > 100 µM | NCI-H460 > 100 µM | OVCAR-8 > 100 µM | RPMI-8226 > 100 µM | SF-268 > 100 µM | SF-539 > 100 µM | SK-MEL-28 > 100 µM | SN12C > 100 µM | SNB-19 > 100 µM | SW-620 > 100 µM | TK-10 > 100 µM | U-251 > 100 µM | UO-31 > 100 µM

Cc1ccc(NC(=O)C2C(=O)C(=O)N(c3ccc(C)cc3)C2=O)cc1 (stereo not drawn)
inactive: A549 > 100 µM | ACHN > 100 µM | CCRF-CEM > 100 µM | KM12 > 100 µM | NCI-H460 > 100 µM | OVCAR-8 > 100 µM | SF-268 > 100 µM | SF-539 > 100 µM | SK-MEL-28 > 10 µM | SN12C > 100 µM | SNB-19 > 100 µM | SW-620 > 100 µM | TK-10 > 100 µM | U-251 99.3 µM | UO-31 > 100 µM

CC(C)(C)N/N=N/c1cn(C2OC(CO)C(O)C2O)c(=O)[nH]c1=O (stereo not drawn)
inactive: A549 > 100 µM | ACHN > 100 µM | CCRF-CEM 26.2 µM | KM12 > 100 µM | NCI-H460 64.9 µM | OVCAR-8 > 100 µM | RPMI-8226 20 µM | SF-268 > 100 µM | SK-MEL-28 > 100 µM | SN12C > 100 µM | SNB-19 > 100 µM | SW-620 17.6 µM | TK-10 > 100 µM | UO-31 > 100 µM

COC(=O)C(CCC1(C)OCCO1)C(C)=O (stereo not drawn)
inactive: A549 > 100 µM | ACHN > 100 µM | CCRF-CEM > 100 µM | KM12 > 100 µM | NCI-H460 > 100 µM | OVCAR-8 > 100 µM | SF-268 > 100 µM | SF-539 > 100 µM | SK-MEL-28 > 100 µM | SN12C > 100 µM | SNB-19 > 100 µM | SW-620 > 100 µM | TK-10 > 100 µM | U-251 > 100 µM | UO-31 > 100 µM

CCCCCCCCCCCCCS(=O)(=O)O
inactive: A549 > 100 µM | ACHN > 100 µM | CCRF-CEM > 100 µM | KM12 > 100 µM | NCI-H460 > 100 µM | OVCAR-8 > 100 µM | SF-268 > 100 µM | SF-539 > 100 µM | SK-MEL-28 > 100 µM | SN12C > 100 µM | SNB-19 > 100 µM | SW-620 > 100 µM | TK-10 > 100 µM | U-251 > 100 µM | UO-31 > 100 µM

COc1cc(CCc2ccc(OC(C)=O)cc2)cc(OC)c1OC
inactive: A549 > 100 µM | ACHN 79.4 µM | CCRF-CEM > 100 µM | KM12 > 100 µM | NCI-H460 > 100 µM | OVCAR-8 > 100 µM | RPMI-8226 86.3 µM | SF-268 > 100 µM | SF-539 > 100 µM | SK-MEL-28 > 100 µM | SN12C > 100 µM | SNB-19 > 100 µM | SW-620 > 100 µM | TK-10 > 100 µM | U-251 > 100 µM | UO-31 73.3 µM
